Data taken from patent publication US12479847B2 (DANA-FARBER CANCER INSTITUTE, INC., priority 2019, dated 2025).

What was measured:
Experiment in all cases: KINOMEscan (ScanMAX) kinase profiling
Format in all cases: binding
[1] = target: T1, panel of 468 kinases (Homo sapiens, UniProt P21127); details: CDC2L1; 1 μM; read-out: % control
T1 construct: purchased KINOMEscan (ScanMAX) service

[2] = target: T2, panel of 468 kinases (Homo sapiens, UniProt P48729); details: CSNK1A1; 1 μM; read-out: % control
T2 construct: purchased KINOMEscan (ScanMAX) service

[3] = target: T3, panel of 468 kinases (Homo sapiens, UniProt P57058); details: HUNK; 1 μM; read-out: % control
T3 construct: purchased KINOMEscan (ScanMAX) service
T3 sequence (P57058 1-714): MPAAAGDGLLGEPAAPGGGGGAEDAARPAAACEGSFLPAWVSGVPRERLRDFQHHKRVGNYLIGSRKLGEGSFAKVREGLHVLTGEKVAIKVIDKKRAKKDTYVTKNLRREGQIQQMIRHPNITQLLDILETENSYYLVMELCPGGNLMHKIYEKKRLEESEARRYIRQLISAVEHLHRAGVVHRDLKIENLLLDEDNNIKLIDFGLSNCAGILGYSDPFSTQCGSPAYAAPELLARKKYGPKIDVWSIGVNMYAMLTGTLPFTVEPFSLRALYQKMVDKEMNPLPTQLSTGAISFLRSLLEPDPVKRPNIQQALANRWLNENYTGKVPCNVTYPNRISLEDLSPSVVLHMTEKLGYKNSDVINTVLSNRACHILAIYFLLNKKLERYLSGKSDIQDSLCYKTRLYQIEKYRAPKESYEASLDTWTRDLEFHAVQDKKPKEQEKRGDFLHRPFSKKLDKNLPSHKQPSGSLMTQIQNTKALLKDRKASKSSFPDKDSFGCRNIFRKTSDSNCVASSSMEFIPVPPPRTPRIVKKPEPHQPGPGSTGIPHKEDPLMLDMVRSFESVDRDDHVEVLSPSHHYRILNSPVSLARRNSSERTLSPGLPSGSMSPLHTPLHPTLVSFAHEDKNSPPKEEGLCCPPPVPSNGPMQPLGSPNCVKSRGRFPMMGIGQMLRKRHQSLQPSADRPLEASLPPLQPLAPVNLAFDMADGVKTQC

[4] = target: T4, panel of 468 kinases (Homo sapiens, UniProt Q96BR1); details: SGK3; 1 μM; read-out: % control
T4 construct: purchased KINOMEscan (ScanMAX) service
T4 sequence (Q96BR1 1-496): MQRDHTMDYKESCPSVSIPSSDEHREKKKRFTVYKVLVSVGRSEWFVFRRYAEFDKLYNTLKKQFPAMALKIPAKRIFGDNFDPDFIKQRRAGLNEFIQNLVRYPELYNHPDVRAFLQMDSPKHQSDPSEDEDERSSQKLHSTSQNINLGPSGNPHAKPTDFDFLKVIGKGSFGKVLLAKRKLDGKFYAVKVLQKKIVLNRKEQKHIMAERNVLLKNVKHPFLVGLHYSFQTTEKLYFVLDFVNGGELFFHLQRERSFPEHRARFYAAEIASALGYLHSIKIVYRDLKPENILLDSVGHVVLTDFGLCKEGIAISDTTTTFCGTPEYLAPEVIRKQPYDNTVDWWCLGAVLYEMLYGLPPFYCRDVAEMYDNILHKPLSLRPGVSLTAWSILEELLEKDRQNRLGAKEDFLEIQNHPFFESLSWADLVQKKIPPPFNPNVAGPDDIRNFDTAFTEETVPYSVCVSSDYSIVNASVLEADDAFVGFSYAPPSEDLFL

[5] = target: T5, panel of 468 kinases (Homo sapiens, UniProt Q9BYP7); details: WNK3; 1 μM; read-out: % control
T5 construct: purchased KINOMEscan (ScanMAX) service

[6] = target: T6, panel of 468 kinases (Homo sapiens, UniProt Q12851); details: MAP4K2; 1 μM; read-out: % control
T6 construct: purchased KINOMEscan (ScanMAX) service
T6 sequence (Q12851 1-820): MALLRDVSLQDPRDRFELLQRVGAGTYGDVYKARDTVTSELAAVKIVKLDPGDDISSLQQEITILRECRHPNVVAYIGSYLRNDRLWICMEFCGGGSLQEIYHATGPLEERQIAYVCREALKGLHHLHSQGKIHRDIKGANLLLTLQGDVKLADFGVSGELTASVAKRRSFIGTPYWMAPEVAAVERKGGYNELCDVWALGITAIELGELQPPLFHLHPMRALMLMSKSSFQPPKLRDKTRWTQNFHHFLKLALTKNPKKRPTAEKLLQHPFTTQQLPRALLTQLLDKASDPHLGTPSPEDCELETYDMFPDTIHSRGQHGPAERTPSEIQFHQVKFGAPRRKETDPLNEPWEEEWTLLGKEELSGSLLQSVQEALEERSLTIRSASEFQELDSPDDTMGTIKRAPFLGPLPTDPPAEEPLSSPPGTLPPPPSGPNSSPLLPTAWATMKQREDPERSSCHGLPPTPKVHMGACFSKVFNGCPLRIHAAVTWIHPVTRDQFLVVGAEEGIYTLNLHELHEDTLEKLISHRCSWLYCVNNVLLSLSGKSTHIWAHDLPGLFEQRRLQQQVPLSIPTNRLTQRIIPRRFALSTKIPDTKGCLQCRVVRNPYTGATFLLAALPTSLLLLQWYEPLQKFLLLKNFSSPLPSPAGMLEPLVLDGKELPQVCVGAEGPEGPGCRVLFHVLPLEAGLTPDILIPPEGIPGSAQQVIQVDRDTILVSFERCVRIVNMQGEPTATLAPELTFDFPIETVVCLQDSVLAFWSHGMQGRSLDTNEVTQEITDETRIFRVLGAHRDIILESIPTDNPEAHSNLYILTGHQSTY

[7] = target: T7, panel of 468 kinases (Homo sapiens, UniProt O43293); details: DAPK3; 1 μM; read-out: % control
T7 construct: purchased KINOMEscan (ScanMAX) service

[8] = target: T8, panel of 468 kinases (Homo sapiens, UniProt Q86UX6); details: YANK3; 1 μM; read-out: % control
T8 construct: purchased KINOMEscan (ScanMAX) service

[9] = target: T9, panel of 468 kinases (Homo sapiens, UniProt Q9P1W9); details: PIM2; 1 μM; read-out: % control
T9 construct: purchased KINOMEscan (ScanMAX) service

[10] = target: T10, panel of 468 kinases (Homo sapiens, UniProt Q9H3Y6); details: SRMS; 1 μM; read-out: % control
T10 construct: purchased KINOMEscan (ScanMAX) service
T10 sequence (Q9H3Y6 whole entry): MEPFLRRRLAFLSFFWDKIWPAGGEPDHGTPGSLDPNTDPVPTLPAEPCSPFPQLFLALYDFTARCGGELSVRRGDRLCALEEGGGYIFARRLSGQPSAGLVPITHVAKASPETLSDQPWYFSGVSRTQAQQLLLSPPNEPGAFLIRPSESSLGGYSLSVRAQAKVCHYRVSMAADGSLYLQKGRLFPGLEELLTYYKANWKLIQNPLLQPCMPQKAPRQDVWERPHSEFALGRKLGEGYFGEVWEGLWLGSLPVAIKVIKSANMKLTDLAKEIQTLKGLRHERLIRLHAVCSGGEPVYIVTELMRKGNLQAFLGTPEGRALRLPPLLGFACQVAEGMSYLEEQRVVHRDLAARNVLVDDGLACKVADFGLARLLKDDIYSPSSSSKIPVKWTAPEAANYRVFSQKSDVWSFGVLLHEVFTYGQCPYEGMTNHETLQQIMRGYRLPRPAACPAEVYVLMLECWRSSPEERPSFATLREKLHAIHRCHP

T7 sequence (O43293 whole entry): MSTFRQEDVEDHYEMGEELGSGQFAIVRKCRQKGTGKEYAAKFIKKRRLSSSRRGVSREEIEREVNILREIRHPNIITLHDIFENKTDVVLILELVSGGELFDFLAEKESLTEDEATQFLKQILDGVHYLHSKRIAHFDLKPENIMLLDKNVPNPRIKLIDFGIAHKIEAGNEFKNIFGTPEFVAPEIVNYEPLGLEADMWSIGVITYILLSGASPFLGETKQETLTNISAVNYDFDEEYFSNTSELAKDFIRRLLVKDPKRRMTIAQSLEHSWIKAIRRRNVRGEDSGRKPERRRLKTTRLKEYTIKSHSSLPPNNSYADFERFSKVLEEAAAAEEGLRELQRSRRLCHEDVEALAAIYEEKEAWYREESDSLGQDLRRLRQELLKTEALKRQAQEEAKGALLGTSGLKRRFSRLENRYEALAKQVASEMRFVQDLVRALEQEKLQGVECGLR
T2 sequence (P48729 whole entry): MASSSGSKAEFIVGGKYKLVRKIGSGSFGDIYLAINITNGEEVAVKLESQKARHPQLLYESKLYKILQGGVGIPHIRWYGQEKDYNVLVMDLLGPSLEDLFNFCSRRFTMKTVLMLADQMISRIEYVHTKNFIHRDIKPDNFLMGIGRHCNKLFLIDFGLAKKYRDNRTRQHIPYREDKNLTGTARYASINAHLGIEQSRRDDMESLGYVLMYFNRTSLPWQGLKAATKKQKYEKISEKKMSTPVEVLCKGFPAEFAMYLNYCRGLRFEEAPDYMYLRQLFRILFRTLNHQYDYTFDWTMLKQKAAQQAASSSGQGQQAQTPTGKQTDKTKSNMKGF
T8 sequence (Q86UX6 whole entry): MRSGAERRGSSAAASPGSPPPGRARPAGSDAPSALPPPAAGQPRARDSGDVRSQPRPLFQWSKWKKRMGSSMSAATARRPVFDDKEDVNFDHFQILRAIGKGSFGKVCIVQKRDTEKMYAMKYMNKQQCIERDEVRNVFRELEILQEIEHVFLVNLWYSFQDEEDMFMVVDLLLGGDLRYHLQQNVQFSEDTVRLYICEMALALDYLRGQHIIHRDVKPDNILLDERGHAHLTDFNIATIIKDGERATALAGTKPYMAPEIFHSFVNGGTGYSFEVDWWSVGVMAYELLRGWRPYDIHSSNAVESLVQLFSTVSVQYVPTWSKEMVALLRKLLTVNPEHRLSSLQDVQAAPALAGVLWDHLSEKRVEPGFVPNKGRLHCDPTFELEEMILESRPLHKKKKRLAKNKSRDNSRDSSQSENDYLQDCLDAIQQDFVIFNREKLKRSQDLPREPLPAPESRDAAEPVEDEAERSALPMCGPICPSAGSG
T9 sequence (Q9P1W9 whole entry): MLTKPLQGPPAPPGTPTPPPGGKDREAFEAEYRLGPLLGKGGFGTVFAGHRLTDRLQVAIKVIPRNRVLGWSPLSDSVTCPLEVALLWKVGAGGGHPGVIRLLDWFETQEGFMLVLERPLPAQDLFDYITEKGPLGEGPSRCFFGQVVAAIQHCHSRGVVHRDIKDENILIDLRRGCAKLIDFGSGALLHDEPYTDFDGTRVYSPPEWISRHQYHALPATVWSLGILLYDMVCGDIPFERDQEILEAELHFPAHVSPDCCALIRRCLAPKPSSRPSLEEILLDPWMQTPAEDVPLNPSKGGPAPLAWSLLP
T1 sequence (P21127 whole entry): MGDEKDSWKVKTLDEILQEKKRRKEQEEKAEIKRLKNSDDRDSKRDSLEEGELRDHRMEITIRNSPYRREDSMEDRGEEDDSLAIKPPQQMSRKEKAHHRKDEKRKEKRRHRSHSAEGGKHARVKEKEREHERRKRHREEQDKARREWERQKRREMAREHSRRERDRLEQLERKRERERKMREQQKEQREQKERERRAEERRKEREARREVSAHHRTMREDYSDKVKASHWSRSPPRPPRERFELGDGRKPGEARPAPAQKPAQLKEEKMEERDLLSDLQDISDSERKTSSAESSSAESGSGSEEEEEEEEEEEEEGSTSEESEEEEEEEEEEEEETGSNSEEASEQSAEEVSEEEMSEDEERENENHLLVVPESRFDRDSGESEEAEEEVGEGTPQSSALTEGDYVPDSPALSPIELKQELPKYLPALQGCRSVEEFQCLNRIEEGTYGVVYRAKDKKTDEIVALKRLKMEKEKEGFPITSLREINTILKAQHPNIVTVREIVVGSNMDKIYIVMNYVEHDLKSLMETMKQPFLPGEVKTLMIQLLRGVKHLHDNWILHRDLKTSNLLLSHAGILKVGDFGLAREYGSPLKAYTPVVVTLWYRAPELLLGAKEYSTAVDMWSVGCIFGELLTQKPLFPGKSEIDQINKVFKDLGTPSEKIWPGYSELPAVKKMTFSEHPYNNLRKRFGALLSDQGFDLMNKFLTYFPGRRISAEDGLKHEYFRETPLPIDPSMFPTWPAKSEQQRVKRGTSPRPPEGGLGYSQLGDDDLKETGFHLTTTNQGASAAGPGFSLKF
T5 sequence (Q9BYP7 whole entry): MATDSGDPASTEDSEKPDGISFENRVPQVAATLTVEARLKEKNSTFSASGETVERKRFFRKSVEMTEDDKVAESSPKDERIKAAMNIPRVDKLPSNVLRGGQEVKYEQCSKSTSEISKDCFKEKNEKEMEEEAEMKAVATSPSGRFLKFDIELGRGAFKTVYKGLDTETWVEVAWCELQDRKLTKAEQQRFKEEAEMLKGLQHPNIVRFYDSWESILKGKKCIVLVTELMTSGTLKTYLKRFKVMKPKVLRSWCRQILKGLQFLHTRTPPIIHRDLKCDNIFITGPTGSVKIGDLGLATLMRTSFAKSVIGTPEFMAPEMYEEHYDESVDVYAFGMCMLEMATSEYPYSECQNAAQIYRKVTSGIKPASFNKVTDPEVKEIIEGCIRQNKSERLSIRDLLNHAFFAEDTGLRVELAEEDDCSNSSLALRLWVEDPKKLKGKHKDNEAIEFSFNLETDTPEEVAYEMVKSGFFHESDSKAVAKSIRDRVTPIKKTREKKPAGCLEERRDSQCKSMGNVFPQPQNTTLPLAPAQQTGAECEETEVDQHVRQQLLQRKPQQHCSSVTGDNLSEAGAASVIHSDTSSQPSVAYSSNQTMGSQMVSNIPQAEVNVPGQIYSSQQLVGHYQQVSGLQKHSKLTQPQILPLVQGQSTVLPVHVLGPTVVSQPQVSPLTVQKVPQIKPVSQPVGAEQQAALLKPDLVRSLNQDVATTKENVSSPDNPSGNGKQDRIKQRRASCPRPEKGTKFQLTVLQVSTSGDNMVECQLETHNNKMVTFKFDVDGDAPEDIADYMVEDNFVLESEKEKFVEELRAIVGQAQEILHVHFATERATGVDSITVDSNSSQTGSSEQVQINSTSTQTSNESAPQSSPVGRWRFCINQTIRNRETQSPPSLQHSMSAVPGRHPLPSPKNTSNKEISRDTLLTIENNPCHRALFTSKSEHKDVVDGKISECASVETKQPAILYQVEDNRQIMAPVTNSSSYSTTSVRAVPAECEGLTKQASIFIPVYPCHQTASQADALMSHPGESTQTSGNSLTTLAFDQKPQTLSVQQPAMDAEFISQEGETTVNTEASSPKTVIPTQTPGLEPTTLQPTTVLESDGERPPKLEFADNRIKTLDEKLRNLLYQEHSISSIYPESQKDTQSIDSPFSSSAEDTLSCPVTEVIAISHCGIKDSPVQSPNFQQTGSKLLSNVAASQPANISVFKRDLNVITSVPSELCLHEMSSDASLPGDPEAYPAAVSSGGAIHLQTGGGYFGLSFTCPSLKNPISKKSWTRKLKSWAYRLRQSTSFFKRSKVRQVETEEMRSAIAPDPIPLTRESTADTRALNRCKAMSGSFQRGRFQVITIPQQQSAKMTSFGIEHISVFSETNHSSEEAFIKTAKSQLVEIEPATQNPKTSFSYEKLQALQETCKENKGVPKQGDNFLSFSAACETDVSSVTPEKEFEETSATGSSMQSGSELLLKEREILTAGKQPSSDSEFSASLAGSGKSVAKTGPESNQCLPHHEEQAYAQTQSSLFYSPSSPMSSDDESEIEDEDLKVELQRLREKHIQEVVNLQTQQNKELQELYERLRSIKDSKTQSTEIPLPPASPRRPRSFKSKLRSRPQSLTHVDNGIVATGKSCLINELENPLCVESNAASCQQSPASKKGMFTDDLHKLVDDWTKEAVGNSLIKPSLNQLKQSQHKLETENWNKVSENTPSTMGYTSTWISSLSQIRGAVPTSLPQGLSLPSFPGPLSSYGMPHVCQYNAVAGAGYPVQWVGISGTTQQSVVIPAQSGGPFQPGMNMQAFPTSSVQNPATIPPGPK

Question: Which remaining binding at 1 µM [1] does the source give for `CNc1nc(Nc2ccc(S(=O)(=O)N3CCC(N4CCOCC4)CC3)cc2OC)nc2[nH]cc(Cl)c12` [Compound 12, 5-chloro-N2-(2-methoxy-4-((4-morpholinopiperidin-1-yl)sulfonyl)phenyl)-N4-methyl-7H-pyrrolo[2,3-d]pyrimidine-2,4-diamine] here?
Answer: The remaining binding at 1 µM was 100%.

Question: What about the remaining binding at 1 µM [2] of the same molecule?
Answer: The remaining binding at 1 µM was 48%.

Question: And the remaining binding at 1 µM [3]?
Answer: Its remaining binding at 1 µM is 12%.

Question: And the remaining binding at 1 µM [4]?
Answer: Its remaining binding at 1 µM is 76%.

Question: What about the remaining binding at 1 µM [5] of the same molecule?
Answer: The remaining binding at 1 µM was 100%.

Question: And the remaining binding at 1 µM [6]?
Answer: The remaining binding at 1 µM was 61%.

Question: What about the remaining binding at 1 µM [7] of the same molecule?
Answer: The remaining binding at 1 µM was 35%.

Question: What about the remaining binding at 1 µM [8] of the same molecule?
Answer: The remaining binding at 1 µM was 100%.

Question: And the remaining binding at 1 µM [9]?
Answer: Its remaining binding at 1 µM is 99%.

Question: And the remaining binding at 1 µM [10]?
Answer: The remaining binding at 1 µM was 66%.

Question: `CNc1nc(Nc2ccc(P3(=O)CCN(C4CCOCC4)CC3)cc2OC)nc2[nH]cc(Cl)c12` [Compound 77, 4-(4-((5-chloro-4-(methylamino)-7H-pyrrolo[2,3-d]pyrimidin-2-yl)amino)-3-methoxyphenyl)-1-(tetrahydro-2H-pyran-4-yl)-1,4-azaphosphinane 4-oxide] was tested. Which remaining binding at 1 µM [1] did it give?
Answer: Its remaining binding at 1 µM is 100%.

Question: What about the remaining binding at 1 µM [2] of the same molecule?
Answer: The remaining binding at 1 µM was 27%.

Question: What about the remaining binding at 1 µM [3] of the same molecule?
Answer: Its remaining binding at 1 µM is 14%.

Question: And the remaining binding at 1 µM [4]?
Answer: Its remaining binding at 1 µM is 78%.

Question: What about the remaining binding at 1 µM [5] of the same molecule?
Answer: The remaining binding at 1 µM was 98%.

Question: What about the remaining binding at 1 µM [6] of the same molecule?
Answer: Its remaining binding at 1 µM is 39%.

Question: And the remaining binding at 1 µM [7]?
Answer: Its remaining binding at 1 µM is 9.9%.

Question: What about the remaining binding at 1 µM [8] of the same molecule?
Answer: Its remaining binding at 1 µM is 100%.

Question: And the remaining binding at 1 µM [9]?
Answer: Its remaining binding at 1 µM is 100%.

Question: And the remaining binding at 1 µM [10]?
Answer: Its remaining binding at 1 µM is 64%.

Question: Which results are given for `CNc1nc(Nc2ccc(C(=O)N3CCC(N4CCOCC4)CC3)c3c2OCO3)nc2[nH]cc(Cl)c12` [Compound 75, (7-((5-chloro-4-(methylamino)-7H-pyrrolo[2,3-d]pyrimidin-2-yl)amino)benzo[d][1,3]dioxol-4-yl)(4-morpholinopiperidin-1-yl)methanone]?
Answer: remaining binding at 1 µM [1]: 100%; remaining binding at 1 µM [2]: 32%; remaining binding at 1 µM [3]: 18%; remaining binding at 1 µM [4]: 32%; remaining binding at 1 µM [5]: 93%; remaining binding at 1 µM [6]: 6.2%; remaining binding at 1 µM [7]: 16%; remaining binding at 1 µM [8]: 100%; remaining binding at 1 µM [9]: 100%; remaining binding at 1 µM [10]: 70%
